From patent US11583533B2, “Topical pharmaceutical compositions comprising 2-[3-[4-amino-3-(2-fluoro-4-phenoxy-phenyl)-1H-pyrazolo[3,4-d]pyrimidin-1-yl]piperidine-1-carbonyl]-4,4-dimethylpent-2-enenitrile” (Principia Biopharma Inc., priority 2020, dated 2023)

Assay: Skin penetration of Compound (I) into the dermis and epidermis
Format: in vitro ADME
Conditions: human abdominal skin from elective surgery (500±50 μm)
Description: Using skin from one donor (n=4-5 replicates per condition) and a receptor solution comprising phosphate/citrate buffer pH 5.6 with 0.01% Brij 98, a dose of 10 mg/cm^2 Compound (I) was applied in the form of one of three 2% Compound (I) gel formulations comprising one of crystalline Form (I), amorphous Compound (I), or crystalline Form (II). Samples were collected every 3 hours for 24 hours. Prior to separating the epidermis and dermis, the residual formulation was removed from the surface of the skin, and then the skin surface was tape stripped up to 5 times to remove residual formulation and the top of the skin surface layers (stratum corneum). The dermis and epidermis were separated by heating to 60° C. for 2 minutes, followed by manual separation using forceps. The extraction fluid used was 90:10 acetonitrile:water with 0.1% BHT. Epidermis and dermis samples were homogenized, then shaken at 130 RPM overnight, and transferred to lo-bind DW96 plates.

With CC(C)(C)C=C(C#N)C(=O)N1CCCC(n2nc(-c3ccc(Oc4ccccc4)cc3F)c3c(N)ncnc32)C1 (stereo not shown) [Compound (I), 2-(3-(4-amino-3-(2-fluoro-4-phenoxyphenyl)-1H-pyrazolo[3,4-d]pyrimidin-1-yl)piperidine-1-carbonyl)-4,4-dimethylpent-2-enenitrile] the “ability to penetrate skin into the dermis and epidermis” value was “able to penetrate”.
